According to patent US9707185B2, “Water-soluble nanoparticles containing water-insoluble compounds” (Board of Supervisors of Louisana State University And …, priority 2007, dated 2017):
Like-named read-outs stand apart in the source and are kept apart here.

Experiments:
[1] = color photographs, dispersed in water
[2] = β-carotene solubility in organic solvents; assay type: physicochemical; conditions: organic solvent or mixture
[3] = cited from earlier work; for Comments: stability: light, heat, acid, oxidation, SO2, ascorbic acid; for Comments: solubility: water / lipid solubility

Question: Which “color and distribution in water” value [1] does the source give for `CC1=C(/C=C/C(C)=C/C=C/C(C)=C/C=C/C=C(C)/C=C/C=C(C)/C=C/C2=C(C)CCCC2(C)C)C(C)(C)CCC1` [β-carotene] here?
Answer: non-uniform color and distribution

Question: What about the solubility [2] of the same compound?
Answer: ≤ 20 mg/mL

Question: For Capsanthin/capsorubin, which “Comments: stability” value [3] is on record?
Answer: Fair stability to light and heat

Question: With Chlorophyll as the compound, how does the “Comments: solubility” value [3] read?
Answer: Liposoluble. Not allowed as a colorant in the U.S.

Question: For `CC1=C[C@H](O)CC(C)(C)[C@H]1/C=C/C(C)=C/C=C/C(C)=C/C=C/C=C(C)/C=C/C=C(C)/C=C/C1=C(C)C[C@@H](O)CC1(C)C` [Lutein], which “Comments: stability” value ([3]; in presence of ascorbic acid) is on record?
Answer: Fades in the presence of ascorbic acid.

Question: What about the “Comments: stability” value ([3]; to light) of the same compound?
Answer: Poor stability to light, heat, acid, oxidation, and SO2.

Question: Which “Comments: solubility” value [3] does the source give for `COc1cc(/C=C/C(=O)CC(=O)/C=C/c2ccc(O)c(OC)c2)ccc1O` [Curcumin] here?
Answer: low water solubility

Question: Which “Comments: stability” value ([3]; in presence of ascorbic acid) does the source give for `Cc1c(C(=O)O)c(O)cc2c1C(=O)c1c(O)c([C@@H]3O[C@H](CO)[C@@H](O)[C@H](O)[C@H]3O)c(O)c(O)c1C2=O` [Carmine, carminic acid, carminic acid] here?
Answer: Fades in the presence of ascorbic acid or SO2

Question: What about the “Comments: stability” value ([3]; to light, heat and acid) of the same compound?
Answer: Good stability to light, heat, and acid

Question: What about the “Comments: solubility” value [3] of the same compound?
Answer: Water soluble
